This is an account of results in patent US9125913B2, “Bcl-2-selective apoptosis-inducing agents for the treatment of cancer and immune diseases” (AbbVie Inc., priority 2008, dated 2015).

This assay has as its system GST-Bcl-2. The assay can be described thus: TR-FRET binding assay, Bcl-2. The settings on record: TR-FRET Ki values. Summed up: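 Ki values come from Wang's competitive-binding equation applied to TR-FRET signal (excitation 340/35 nm; emission 520/525 nm F-Bak peptide, 495/510 nm Tb antibody). Protein, probe and antibody incubated with compound 3 h at room temperature; dilution series began at 50 μM as 2× stock in 10% DMSO.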
On to `CC1(C)CCC(CN2CCN(c3ccc(C(=O)NS(=O)(=O)c4ccc(NCC5(O)CCCCC5)c([N+](=O)[O-])c4)c(Oc4ccc5[nH]ccc5c4)c3)CC2)=C(c2ccc(Cl)cc2)C1` [EXAMPLE 238, 4-(4-{[2-(4-chlorophenyl)-4,4-dimethylcyclohex-1-en-1-yl]methyl}piperazin-1-yl)-N-[(4-{[(1-hydroxycyclohexyl)methyl]amino}-3-nitrophenyl)sulfonyl]-2-(1H-indol-5-yloxy)benzamide], for which the “Binding selectivity ratio (Bcl-XL Ki/Bcl-2 Ki)” value (“Binding selectivity ratio” for short) is recorded as over 1534.3.
As for `CC1(C)CCC(CN2CCN(c3ccc(C(=O)NS(=O)(=O)c4ccc(NC5CCN(c6nccs6)CC5)c([N+](=O)[O-])c4)c(Oc4ccc5[nH]ccc5c4)c3)CC2)=C(c2ccc(Cl)cc2)C1` [EXAMPLE 212, 4-(4-{[2-(4-chlorophenyl)-4,4-dimethylcyclohex-1-en-1-yl]methyl}piperazin-1-yl)-2-(1H-indol-5-yloxy)-N-[(3-nitro-4-{[1-(1,3-thiazol-2-yl)piperidin-4-yl]amino}phenyl)sulfonyl]benzamide], the “Binding selectivity ratio” value is listed as over 895.1.
As to `COCCOCCN1CCO[C@H](CNc2ccc(S(=O)(=O)NC(=O)c3ccc(N4CCN(CC5=C(c6ccc(Cl)cc6)CC(C)(C)CC5)CC4)cc3Oc3cccc4[nH]cnc34)cc2[N+](=O)[O-])C1` [EXAMPLE 455, 2-(1H-benzimidazol-4-yloxy)-4-(4-{[2-(4-chlorophenyl)-4,4-dimethylcyclohex-1-en-1-yl]methyl}piperazin-1-yl)-N-({4-[({(2R)-4-[2-(2-methoxyethoxy)ethyl]morpholin-2-yl}methyl)amino]-3-nitrophenyl}sulfonyl)benzamide], the “Binding selectivity ratio” value is listed as 139.4.
On to `CC1(C)CCC(CN2CCN(c3ccc(C(=O)NS(=O)(=O)c4ccc(OCC5(F)CCOCC5)c(Cl)c4)c(Oc4cccc5[nH]ncc45)c3)CC2)=C(c2ccc(Cl)cc2)C1` [EXAMPLE 464, N-({3-chloro-4-[(4-fluorotetrahydro-2H-pyran-4-yl)methoxy]phenyl}sulfonyl)-4-(4-{[2-(4-chlorophenyl)-4,4-dimethylcyclohex-1-en-1-yl]methyl}piperazin-1-yl)-2-(1H-indazol-4-yloxy)benzamide], for which the “Binding selectivity ratio” value worked out at 6432.
Take `CN1CCN(c2ccc(S(=O)(=O)NC(=O)c3ccc(N4CCN(CC5=C(c6ccc(Cl)cc6)CC(C)(C)CC5)CC4)cc3Oc3ccc4[nH]ccc4c3)cc2[N+](=O)[O-])CC1` [Example 107, 4-(4-{[2-(4-chlorophenyl)-4,4-dimethylcyclohex-1-en-1-yl]methyl}piperazin-1-yl)-2-(1H-indol-5-yloxy)-N-{[4-(4-methylpiperazin-1-yl)-3-nitrophenyl]sulfonyl}benzamide]: the “Binding selectivity ratio” value was 62.5.
For `O=C(NS(=O)(=O)c1ccc(N2C(=O)C3CCC3C2=O)cc1)c1ccc(N2CCN(Cc3ccccc3-c3ccc(Cl)cc3)CC2)cc1Oc1ccccc1` (centres unmarked) [Example 28, 4-{4-[(4′-chloro-1,1′-biphenyl-2-yl)methyl]piperazin-1-yl}-N-{[4-(2,4-dioxo-3-azabicyclo[3.2.0]hept-3-yl)phenyl]sulfonyl}-2-phenoxybenzamide] the value was over 19.6.
For `CCN(CC)C1CCC(Nc2ccc(S(=O)(=O)NC(=O)c3ccc(N4CCN(CC5=C(c6ccc(Cl)cc6)CC(C)(C)CC5)CC4)cc3Oc3cccc4[nH]ccc34)cc2[N+](=O)[O-])CC1` (centres unmarked) [EXAMPLE 203, 4-(4-{[2-(4-chlorophenyl)-4,4-dimethylcyclohex-1-en-1-yl]methyl}piperazin-1-yl)-N-[(4-{[4-(diethylamino)cyclohexyl]amino}-3-nitrophenyl)sulfonyl]-2-(1H-indol-4-yloxy)benzamide] the value was 139.5.
Turning to `CC1(C)CCC(CN2CCN(c3ccc(C(=O)NS(=O)(=O)c4ccc(NC5CCN(C6CC6)CC5)c([N+](=O)[O-])c4)c(Oc4cccc5[nH]cnc45)c3)CC2)=C(c2ccc(Cl)cc2)C1` [EXAMPLE 451, 2-(1H-benzimidazol-4-yloxy)-4-(4-{[2-(4-chlorophenyl)-4,4-dimethylcyclohex-1-en-1-yl]methyl}piperazin-1-yl)-N-({4-[(1-cyclopropylpiperidin-4-yl)amino]-3-nitrophenyl}sulfonyl)benzamide], the “Binding selectivity ratio” value was found to be 359.92.
For `CC1(C)CCC(CN2CCN(c3ccc(C(=O)NS(=O)(=O)c4ccc(OCC5(C)COC5)c([N+](=O)[O-])c4)c(Oc4ccc5[nH]ccc5c4)c3)CC2)=C(c2ccc(Cl)cc2)C1` [EXAMPLE 286, 4-(4-{[2-(4-chlorophenyl)-4,4-dimethylcyclohex-1-en-1-yl]methyl}piperazin-1-yl)-2-(1H-indol-5-yloxy)-N-({4-[(3-methyloxetan-3-yl)methoxy]-3-nitrophenyl}sulfonyl)benzamide] the value was over 1165.0; for `CC1(C)CN(c2ccc(S(=O)(=O)NC(=O)c3ccc(N4CCN(Cc5ccccc5-c5ccc(Cl)cc5)CC4)cc3Oc3ccccc3)cc2)C1=O` [Example 30, 4-{4-[(4′-chloro-1,1′-biphenyl-2-yl)methyl]piperazin-1-yl}-N-{[4-(3,3-dimethyl-2-oxoazetidin-1-yl)phenyl]sulfonyl}-2-phenoxybenzamide], over 6.4.
Turning to `CC1(C)CCC(CN2CCN(c3ccc(C(=O)NS(=O)(=O)c4ccc(OCC5(F)CCOCC5)c([N+](=O)[O-])c4)c(Oc4ccc5[nH]ccc5c4)c3)CC2)=C(c2ccc(Cl)cc2)C1` [EXAMPLE 327, 4-(4-{[2-(4-chlorophenyl)-4,4-dimethylcyclohex-1-en-1-yl]methyl}piperazin-1-yl)-N-({4-[(4-fluorotetrahydro-2H-pyran-4-yl)methoxy]-3-nitrophenyl}sulfonyl)-2-(1H-indol-5-yloxy)benzamide], the “Binding selectivity ratio” value is recorded as 3035.4.
With `COCCCNc1ccc(S(=O)(=O)NC(=O)c2ccc(N3CCN(CC4=C(c5ccc(Cl)cc5)CC(C)(C)CC4)CC3)cc2Oc2ccc3[nH]ccc3c2)cc1[N+](=O)[O-]` [EXAMPLE 317, 4-(4-{[2-(4-chlorophenyl)-4,4-dimethylcyclohex-1-en-1-yl]methyl}piperazin-1-yl)-2-(1H-indol-5-yloxy)-N-({4-[(3-methoxypropyl)amino]-3-nitrophenyl}sulfonyl)benzamide], the “Binding selectivity ratio” value was over 235.9.
Consider `CC1(C)CCC(CN2CCN(c3ccc(C(=O)NS(=O)(=O)c4ccc(NCCCS(C)(=O)=O)c([N+](=O)[O-])c4)c(Oc4cccc5[nH]ccc45)c3)CC2)=C(c2ccc(Cl)cc2)C1` [EXAMPLE 294, 4-(4-{[2-(4-chlorophenyl)-4,4-dimethylcyclohex-1-en-1-yl]methyl}piperazin-1-yl)-2-(1H-indol-4-yloxy)-N-[(4-{[3-(methylsulfonyl)propyl]amino}-3-nitrophenyl)sulfonyl]benzamide], for which the “Binding selectivity ratio” value is recorded as 252.
With `O=C(NS(=O)(=O)c1ccc(NCC2CCOCC2)c([N+](=O)[O-])c1)c1ccc(N2CCN(CC3=C(c4ccc(Cl)cc4)CCC(O)C3)CC2)cc1Oc1ccc2[nH]ccc2c1` (centres unmarked) [EXAMPLE 248, 4-(4-{[2-(4-chlorophenyl)-5-hydroxycyclohex-1-en-1-yl]methyl}piperazin-1-yl)-2-(1H-indol-5-yloxy)-N-({3-nitro-4-[(tetrahydro-2H-pyran-4-ylmethyl)amino]phenyl}sulfonyl)benzamide], the “Binding selectivity ratio” value was 12079.6.
With `O=C(NS(=O)(=O)c1ccc(NCCCN2CCOCC2)cc1)c1ccc(N2CCN(Cc3ccccc3-c3ccc(Cl)cc3)CC2)cc1Oc1ccccc1` [Example 78, 4-{4-[(4′-chloro-1,1′-biphenyl-2-yl)methyl]piperazin-1-yl}-N-({4-[(3-morpholin-4-ylpropyl)amino]phenyl}sulfonyl)-2-phenoxybenzamide], the “Binding selectivity ratio” value was over 5.9.
With `CC1(C)CCC(CN2CCN(c3ccc(C(=O)NS(=O)(=O)c4ccc(NCC5(F)CCOCC5)c([N+](=O)[O-])c4)c(Oc4cccc5[nH]ncc45)c3)CC2)=C(c2ccc(Cl)cc2)C1` [EXAMPLE 409, 4-(4-{[2-(4-chlorophenyl)-4,4-dimethylcyclohex-1-en-1-yl]methyl}piperazin-1-yl)-N-[(4-{[(4-fluorotetrahydro-2H-pyran-4-yl)methyl]amino}-3-nitrophenyl)sulfonyl]-2-(1H-indazol-4-yloxy)benzamide], the “Binding selectivity ratio” value was 1748.5.
On to `CN(C)CCCNc1ccc(S(=O)(=O)NC(=O)c2ccc(N3CCN(Cc4ccccc4-c4ccc(Cl)cc4)CC3)cc2Oc2cccc3cnccc23)cc1[N+](=O)[O-]` [Example 42, 4-{4-[(4′-chloro-1,1′-biphenyl-2-yl)methyl]piperazin-1-yl}-N-[(4-{[3-(dimethylamino)propyl]amino}-3-nitrophenyl)sulfonyl]-2-(isoquinolin-5-yloxy)benzamide], for which the “Binding selectivity ratio” value was 80.
For `CC1(C)CCC(CN2CCN(c3ccc(C(=O)NS(=O)(=O)c4ccc(NN5CCOCC5)c([N+](=O)[O-])c4)c(Oc4ccc5[nH]ccc5c4)c3)CC2)=C(c2ccc(Cl)cc2)C1` [EXAMPLE 260, 4-(4-{[2-(4-chlorophenyl)-4,4-dimethylcyclohex-1-en-1-yl]methyl}piperazin-1-yl)-2-(1H-indol-5-yloxy)-N-{[4-(morpholin-4-ylamino)-3-nitrophenyl]sulfonyl}benzamide], the “Binding selectivity ratio” value is on record as over 607.2.
`CC1(C)CCC(CN2CCN(c3ccc(C(=O)NS(=O)(=O)c4cnc(NCC5CCOCC5)c(Br)c4)c(Oc4cccc5[nH]ccc45)c3)CC2)=C(c2ccc(Cl)cc2)C1` [EXAMPLE 325, N-({5-bromo-6-[(tetrahydro-2H-pyran-4-ylmethyl)amino]pyridin-3-yl}sulfonyl)-4-(4-{[2-(4-chlorophenyl)-4,4-dimethylcyclohex-1-en-1-yl]methyl}piperazin-1-yl)-2-(1H-indol-4-yloxy)benzamide]: the “Binding selectivity ratio” value was over 283.1.
Take `CN1CCN(CCNc2ccc(S(=O)(=O)NC(=O)c3ccc(N4CCN(Cc5ccccc5-c5ccc(Cl)cc5)CC4)cc3Oc3ccccc3)cc2[N+](=O)[O-])CC1` [Example 85, 4-{4-[(4′-chloro-1,1′-biphenyl-2-yl)methyl]piperazin-1-yl}-N-[(4-{[2-(4-methylpiperazin-1-yl)ethyl]amino}-3-nitrophenyl)sulfonyl]-2-phenoxybenzamide]: the “Binding selectivity ratio” value came out at 48.8.
